Columns and labels:
human LTA4 hydrolase = target: T1, human LTA4 hydrolase (Homo sapiens, UniProt P09960); assay: LTA4H enzyme assay (cleavage of Arg-AMC, fluorescence); format: biochemical; conditions: LTA4H enzyme 1 nM, Arg-AMC substrate 50 μM, room temperature 1 h
T1 sequence (P09960 1-611): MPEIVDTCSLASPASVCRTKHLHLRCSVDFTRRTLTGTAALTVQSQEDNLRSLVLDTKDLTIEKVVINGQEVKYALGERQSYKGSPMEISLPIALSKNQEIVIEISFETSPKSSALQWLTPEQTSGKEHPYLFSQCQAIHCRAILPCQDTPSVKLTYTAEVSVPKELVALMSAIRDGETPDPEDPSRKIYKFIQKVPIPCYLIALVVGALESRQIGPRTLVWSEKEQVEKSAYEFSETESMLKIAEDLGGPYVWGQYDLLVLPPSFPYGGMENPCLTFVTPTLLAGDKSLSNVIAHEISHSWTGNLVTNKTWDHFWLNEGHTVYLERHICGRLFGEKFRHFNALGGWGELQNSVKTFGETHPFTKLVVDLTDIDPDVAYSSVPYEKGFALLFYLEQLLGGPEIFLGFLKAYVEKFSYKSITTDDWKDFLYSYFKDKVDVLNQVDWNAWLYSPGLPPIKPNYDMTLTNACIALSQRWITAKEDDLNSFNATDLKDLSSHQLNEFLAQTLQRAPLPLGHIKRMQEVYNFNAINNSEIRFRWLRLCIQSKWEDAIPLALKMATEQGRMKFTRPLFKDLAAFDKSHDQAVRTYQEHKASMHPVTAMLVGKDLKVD
Method: Compounds are assessed for the ability to interact with human LTA4 hydrolase in an enzymatic assay that measures the ability of the enzyme to cleave the peptide bond of arginyl-aminomethylcoumarin (Arg-AMC). LTA4H Enzyme (1 nM final), Arg-AMC substrate (50 μM final), and compound are combined in a reaction buffer (50 mM Tris-HCl (pH 7.5), 100 mM KCl, 0.5% bovine serum albumin) at room temperature for 1 h. The formation of product is assessed by measuring the fluorescence of aminomethylcoumarin product (excitation wavelength 380 nm/emission wavelength 460 nm).

[1] = system: LTB4 production in human whole blood; assay: LTB4 production inhibition assay in human whole blood (calcimycin-stimulated); format: cell-based; conditions: heparinized human whole blood, 15 min 37° C., calcimycin 20 μM 30 min, plasma LTB4 by HTRF
Method: Compounds of the invention are additionally tested in a human whole blood assay to determine their ability to inhibit the synthesis of LTB4 in a cellular system. Compounds are combined with heparinized human whole blood and incubated for 15 minutes at 37° C. Calcimycin (20 μM final, prepared in phosphate-buffered saline, pH 7.4) is then added and the mixture is incubated for another 30 minutes at 37° C. The samples are centrifuged for 5 min at low speed (1500×g) and the plasma layer is removed. Plasma LTB4 concentrations are then measured using an antibody-based homogenous time-resolved fluorescence method (CisBio, Bedford, Mass.).

IC50 (human LTA4 hydrolase) [nM]	IC50 [1] [nM]	Structure (SMILES)
3.9	1780	c1cc(COc2ccc(Oc3ccc(-c4ccn[nH]4)cc3)cc2)ccn1 [Example 35, 4-({4-[4-(1H-pyrazol-5-yl)phenoxy]phenoxy}methyl)pyridine]
6	4500	c1cc(-c2ccc(Oc3ccc(OCc4cn5ccsc5n4)cc3)cc2)[nH]n1 [Example 36, 6-({4-[4-(1H-pyrazol-5-yl)phenoxy]phenoxy}methyl)imidazo[2,1-b][1,3]thiazole]
3.5	2090	CS(=O)(=O)c1ccc(COc2ccc(Oc3ccc(-c4ccn[nH]4)cc3)cc2)cc1 [Example 37, 5-[4-(4-{[4-(methylsulfonyl)benzyl]oxy}phenoxy)phenyl]-1H-pyrazole]
3.3	≥ 5000	c1cc(-c2ccc(Oc3ccc(OCc4cscn4)cc3)cc2)[nH]n1 [Example 38, 4-{4-[4-(2H-Pyrazol-3-yl)-phenoxy]-phenoxymethyl}-thiazole]
7.6	≥ 5000	c1cc(-c2ccc(Oc3ccc(OCc4cnc5[nH]ccc5c4)cc3)cc2)[nH]n1 [Example 39, 5-({4-[4-(1H-pyrazol-5-yl)phenoxy]phenoxy}methyl)-1H-pyrrolo[2,3-b]pyridine]
3.2	3120	c1cc(CCOc2ccc(Oc3ccc(-c4ccn[nH]4)cc3)cc2)ccn1 [Example 40, 4-(2-{4-[4-(1H-pyrazol-5-yl)phenoxy]phenoxy}ethyl)pyridine]
0.2	673	c1ccc2[nH]c(NCCOc3ccc(Oc4ccc(-c5ccn[nH]5)cc4)cc3)nc2c1 [Example 41, N-(2-{4-[4-(1H-pyrazol-5-yl)phenoxy]phenoxy}ethyl)-1H-benzimidazol-2-amine]
0.3	172	Cc1nccn1CCOc1ccc(Oc2ccc(-c3ccn[nH]3)cc2)cc1 [Example 42, 5-(4-{4-[2-(2-methyl-1H-imidazol-1-yl)ethoxy]phenoxy]phenyl)-1H-pyrazole]
1.3	1910	c1ccc2c(c1)ncn2CCOc1ccc(Oc2ccc(-c3ccn[nH]3)cc2)cc1 [Example 43, 1-(2-{4-[4-(1H-pyrazol-5-yl)phenoxy]phenoxy}ethyl)-1H-benzimidazole]
1.1	766	c1cnc(COc2ccc(Oc3ccc(-c4ccn[nH]4)cc3)cc2)cn1 [Example 44, 2-({4-[4-(1H-pyrazol-5-yl)phenoxy]phenoxy}methyl)pyrazine]
1.7	≥ 5000	c1ccc2[nH]c(CCOc3ccc(Oc4ccc(-c5ccn[nH]5)cc4)cc3)nc2c1 [Example 45, 2-(2-{4-[4-(1H-pyrazol-5-yl)phenoxy]phenoxy}ethyl)-1H-benzimidazole]
6.1	4900	c1cc(-c2ccc(Oc3ccc(OCc4cc[nH]n4)cc3)cc2)[nH]n1 [Example 46, 3-({4-[4-(1H-pyrazol-5-yl)phenoxy]phenoxy}methyl)-1H-pyrazole]
82.4	≥ 5000	c1cnc2c(c1)CCC2Oc1ccc(Oc2ccc(-c3ccn[nH]3)cc2)cc1 (stereo not shown) [Example 47, 7-{4-[4-(1H-pyrazol-5-yl)phenoxy]phenoxy}-6,7-dihydro-5H-cyclopenta[b]pyridine]
16.9	3920	CC(Oc1ccc(Oc2ccc(-c3ccn[nH]3)cc2)cc1)c1ccncc1 (stereo not shown) [Example 48, 4-(1-{4-[4-(1H-pyrazol-5-yl)phenoxy]phenoxy}ethyl)pyridine]
1.2	3140	c1cc(-c2ccc(Oc3ccc(OCc4cnc5cc[nH]c5c4)cc3)cc2)[nH]n1 [Example 49, 6-({4-[4-(1H-pyrazol-5-yl)phenoxy]phenoxy}methyl)-1H-pyrrolo[3,2-b]pyridine]
1.2	2110	c1cnn(CCCOc2ccc(Oc3ccc(-c4ccn[nH]4)cc3)cc2)c1 [Example 50, 1-(3-{4-[4-(1H-pyrazol-5-yl)phenoxy]phenoxy}propyl)-1H-pyrazole]
4	3110	CC(CCOc1ccc(Oc2ccc(-c3ccn[nH]3)cc2)cc1)n1cccn1 (stereo not shown) [Example 51, 1-(1-methyl-3-{4-[4-(1H-pyrazol-5-yl)phenoxy]phenoxy}propyl)-1H-pyrazole]
4.1	2600	c1cc(-c2ccc(Oc3ccc(OCc4ccno4)cc3)cc2)[nH]n1 [Example 52, 5-({4-[4-(1H-pyrazol-5-yl)phenoxy]phenoxy}methyl)isoxazole]

IC50 (human LTA4 hydrolase) [nM]	IC50 [1] [nM]	Structure (SMILES)
3.7	≥ 5000	c1ccn2cc(COc3ccc(Oc4ccc(-c5ccn[nH]5)cc4)cc3)nc2c1 [Example 53, 2-({4-[4-(1H-pyrazol-5-yl)phenoxy]phenoxy}methyl)imidazo[1,2-a]pyridine]
4.2	≥ 5000	c1cc(-c2ccc(Oc3ccc(OCc4cocn4)cc3)cc2)[nH]n1 [Example 54, 4-({4-[4-(1H-pyrazol-5-yl)phenoxy]phenoxy}methyl)-1,3-oxazole]
7	2500	c1cc(-c2ccc(Oc3ccc(OCCc4cn[nH]c4)cc3)cc2)[nH]n1 [Example 55, 4-(2-{4-[4-(1H-pyrazol-5-yl)phenoxy]phenoxy}ethyl)-1H-pyrazole]
0.6	≥ 5000	Cn1ncnc1COc1ccc(Oc2ccc(-c3ccn[nH]3)cc2)cc1 [Example 56, 1-methyl-5-({4-[4-(1H-pyrazol-5-yl)phenoxy]phenoxy}methyl)-1H-1,2,4-triazole]
11	≥ 5000	Cn1nc(COc2ccc(Oc3ccc(-c4ccn[nH]4)cc3)cc2)cc1-c1ccco1 [Example 57, 5-(2-furyl)-1-methyl-3-({4-[4-(1H-pyrazol-5-yl)phenoxy]phenoxy}methyl)-1H-pyrazole]
44	≥ 5000	C[C@H](Oc1ccc(Oc2ccc(-c3ccn[nH]3)cc2)cc1)c1ccccn1 [Example 58, 2-[(1S)-1-{4-[4-(1H-pyrazol-5-yl)phenoxy]phenoxy}ethyl]pyridine]
42.7	≥ 5000	C[C@@H](Oc1ccc(Oc2ccc(-c3ccn[nH]3)cc2)cc1)c1ccccn1 [Example 59, 2-[(1R)-1-{4-[4-(1H-pyrazol-5-yl)phenoxy]phenoxy}ethyl]pyridine]
3.9	≥ 5000	Cc1nc(COc2ccc(Oc3ccc(-c4ccn[nH]4)cc3)cc2)co1 [Example 60, 2-methyl-4-({4-[4-(1H-pyrazol-5-yl)phenoxy]phenoxy}methyl)-1,3-oxazole]
1.4	1120	Cn1nccc1COc1ccc(Oc2ccc(-c3ccn[nH]3)cc2)cc1 [Example 61, 1-methyl-5-({4-[4-(1H-pyrazol-5-yl)phenoxy]phenoxy}methyl)-1H-pyrazole]
142	≥ 5000	c1ccc(COc2ccc(Oc3ccc(-c4ccn[nH]4)cc3)cc2)cc1 [Example 62, 5-{4-[4-(benzyloxy)phenoxy]phenyl}-1H-pyrazole]
52.9	≥ 5000	c1cc(-c2ccc(Oc3ccc(OCc4ccoc4)cc3)cc2)[nH]n1 [Example 63, 5-{4-[4-(3-furylmethoxy)phenoxy]phenyl}-1H-pyrazole]
44.2	≥ 5000	c1ccc2sc(COc3ccc(Oc4ccc(-c5ccn[nH]5)cc4)cc3)nc2c1 [Example 64, 2-({4-[4-(1H-pyrazol-5-yl)phenoxy]phenoxy}methyl)-1,3-benzothiazole]
12.9	≥ 5000	Cn1ccc(COc2ccc(Oc3ccc(-c4ccn[nH]4)cc3)cc2)n1 [Example 65, 1-methyl-3-({4-[4-(1H-pyrazol-5-yl)phenoxy]phenoxy}methyl)-1H-pyrazole]
959	≥ 5000	c1ccc(CCOc2ccc(Oc3ccc(-c4ccn[nH]4)cc3)cc2)cc1 [Example 66, 5-{4-[4-(2-phenylethoxy)phenoxy]phenyl}-1H-pyrazole]
11.2	≥ 5000	Cc1ncsc1CCOc1ccc(Oc2ccc(-c3ccn[nH]3)cc2)cc1 [Example 67, 4-Methyl-5-(2-{4-[4-(2H-pyrazol-3-yl)-phenoxy]-phenoxy}-ethyl)-thiazole]
820	≥ 5000	c1csc(CCOc2ccc(Oc3ccc(-c4ccn[nH]4)cc3)cc2)c1 [Example 68, 5-(4-{4-[2-(2-thienyl)ethoxy]phenoxy}phenyl)-1H-pyrazole]
65.3	≥ 5000	c1cc(-c2ccc(Oc3ccc(OCc4ccsc4)cc3)cc2)[nH]n1 [Example 69, 5-{4-[4-(3-thienylmethoxy)phenoxy]phenyl}-1H-pyrazole]
